In the supplement of paper PMC11061612:

Tests used:
[1] = tested on: SK-GT-4 (Esophageal Adenocarcinoma); assay: Bliss excess, mean over the matrix (fraction); higher = more synergy
How it was run: (§1)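 Bliss excess equals the observed combination effect minus the expected value EA + EB − EA·EB, where EA and EB are the effects of each agent alone. Combination Emax is the second-highest inhibition within the matrix. Inhibition was scaled from CellTiter-Glo 2.0 luminescence, with 0 set by vehicle wells and 1 by blank wells, after 72 hours of two-drug dosing of cells plated in 1536-well plates.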

[2] = tested on: DMS-114 (Small Cell Lung Carcinoma); assay: combination Emax (second highest fraction inhibited in the dose matrix, 72 h); higher = more inhibition; extreme values may be limits of the assay
How it was run: as §1

[3] = tested on: SUP-B15 (B-Lymphoblastic Leukemia); assay: as above
How it was run: as §1

[4] = tested on: 8505C (Thyroid Gland Carcinoma); assay: as above
How it was run: as §1

[5] = tested on: NCI-H520 (Squamous Cell Lung Carcinoma); assay: as above
How it was run: as §1

[6] = tested on: PC-3 (Prostate Carcinoma); assay: as above
How it was run: as §1

[7] = tested on: ESO51 (Esophageal Adenocarcinoma); assay: as above
How it was run: as §1

[8] = tested on: IM-95 (Gastric Carcinoma); assay: as above
How it was run: as §1

[9] = tested on: MN-60 (B-Lymphoblastic Leukemia); assay: as above
How it was run: as §1

[10] = tested on: SNU-398 (Hepatocellular Carcinoma); assay: as above
How it was run: as §1

[11] = tested on: T-T (Esophageal Squamous Cell Carcinoma); assay: as above
How it was run: as §1

[12] = tested on: ST486 (Burkitt's Lymphoma); assay: as above
How it was run: as §1

[13] = tested on: CHSA8926 (Chondrosarcoma); assay: as above
How it was run: as §1

[14] = tested on: HCC1187 (Breast Carcinoma); assay: as above
How it was run: as §1

[15] = tested on: COR-L279 (Small Cell Lung Carcinoma); assay: as above
How it was run: as §1

[16] = tested on: KP-3 (Pancreatic Carcinoma); assay: as above
How it was run: as §1

[17] = tested on: SU-DHL-5 (B-Cell Non-Hodgkin's Lymphoma); assay: as above
How it was run: as §1

[18] = tested on: SK-GT-4 (Esophageal Adenocarcinoma); assay: as above
How it was run: as §1

[19] = tested on: NCI-H661 (Non-Small Cell Lung Carcinoma); assay: as above
How it was run: as §1

[20] = tested on: KY821 (Acute Myeloid Leukemia); assay: as above
How it was run: as §1

| Structure (SMILES) | Bliss excess [1] | combination Emax [2] | combination Emax [3] | combination Emax [4] | combination Emax [5] | combination Emax [6] | combination Emax [7] | combination Emax [8] | combination Emax [9] | combination Emax [10] | combination Emax [11] | combination Emax [12] | combination Emax [13] | combination Emax [14] | combination Emax [15] | combination Emax [16] | combination Emax [17] | combination Emax [18] | combination Emax [19] | combination Emax [20] |
| --- | --- | --- | --- | --- | --- | --- | --- | --- | --- | --- | --- | --- | --- | --- | --- | --- | --- | --- | --- | --- |
| NC1(C(=O)N[C@@H](CCO)c2ccc(Cl)cc2)CCN(c2ncnc3[nH]ccc23)CC1 [Capivasertib] + C[C@@H]1COCCN1C2=NC(=NC(=C2)C3(CC3)[S@](=N)(=O)C)C4=C5C=CNC5=NC=C4 [AZD6738] (first compound max 10 µM, 7x7, partner max 10 µM) | -0.0871 | 0.623 | 0.986 | 0.475 | 0.711 | 0.593 | 0.817 | 0.456 | 0.715 | 0.752 | 0.389 | 0.881 | 0.54 | 0.51 | 0.853 | 0.318 | 1 | 0.614 | 0.569 | 1 |
| Cc1cc2ncnn2cc1Nc1ncc2c(n1)n(C1CCOCC1)c(=O)n2C [AZD7648] + C[C@@H]1COCCN1C2=NC(=NC(=C2)C3(CC3)[S@](=N)(=O)C)C4=C5C=CNC5=NC=C4 [AZD6738] (first compound max 10 µM, 7x7, partner max 10 µM) | 0.0068 | 0.54 | 0.848 | 0.361 | 0.771 | 0.402 | 0.744 | 0.317 | 0.427 | 0.46 | 0.531 | 0.893 | 0.428 | 0.278 | 0.677 | 0.296 | 1 | 0.576 | 0.56 | 0.92 |
| CCc1c2c(nc3ccc(O)cc13)-c1cc3c(c(=O)n1C2)COC(=O)[C@]3(O)CC [SN-38] + CN(C)CCCOc1ccc(-c2ccc3ncc4c(c3c2)n(C2CCOCC2)c(=O)n4C)cn1 [AZD0156] (first compound max 0.3 µM, 7x7, partner max 1 µM) | -0.12 | 0.514 | 1 | 0.87 | 0.786 | 0.688 | 0.586 | 0.499 | 0.838 | 0.231 | 0.803 | 0.733 | 0.319 | 0.336 | 1 | 0.0449 | 1 | 0.258 | 0.463 | 0.998 |
| C[C@@H](c1ccc2nccn2c1)n1nnc2ncc(-c3cnn(C)c3)nc21 [Savolitinib] + Cc1c2c(nn1C)CSCc1cc(n(C)n1)CSc1cc(c3ccccc3c1)OCCCc1c(C(=O)O)n(C)c3c-2c(Cl)ccc13 [AZD5991] (first compound max 1 µM, 7x7, partner max 1 µM) | -0.0519 | 0.551 | 0.678 | 0.173 | 0.208 | 0.121 | 0.977 | 0.732 | 0.114 | 0.936 | 0.836 | 0.483 | 0.318 | 1 | 0.244 | 0.235 | 1 | 0.14 | 0.491 | 1 |
| Cn1cnc2c(F)c(Nc3ccc(Br)cc3Cl)c(C(=O)NOCCO)cc21 [Selumetinib] + CC(C)n1c(=O)n(C)c2cnc3cc(F)c(-c4ccc(OCCCN5CCCCC5)nc4)cc3c21 [AZD1390] (first compound max 10 µM, 7x7, partner max 0.3 µM) | 0.0162 | 0.199 | 0.328 | 0.584 | 0.147 | 0.0591 | 0.434 | 0.222 | 0.052 | 0.278 | 0.264 | 0.455 | 0.185 | 0.179 | 0.194 | 0.15 | 0.299 | 0.516 | 0.0857 | 0.66 |
| Cc1c2c(nn1C)CSCc1cc(n(C)n1)CSc1cc(c3ccccc3c1)OCCCc1c(C(=O)O)n(C)c3c-2c(Cl)ccc13 [AZD5991] + CCN(CCO)CCCOc1ccc2c(Nc3cc(CC(=O)Nc4cccc(F)c4)[nH]n3)ncnc2c1 [AZD2811] (first compound max 1 µM, 7x7, partner max 1 µM) | -0.0303 | 0.587 | 1 | 0.866 | 0.599 | 0.305 | 0.195 | 0.875 | 0.206 | 0.991 | 0.95 | 0.976 | 0.652 | 1 | 0.787 | 0.186 | 1 | 0.26 | 0.686 | 1 |
| Cc1c2c(nn1C)CSCc1cc(n(C)n1)CSc1cc(c3ccccc3c1)OCCCc1c(C(=O)O)n(C)c3c-2c(Cl)ccc13 [AZD5991] + CC1(C)CCC(CN2CCN(c3ccc(C(=O)NS(=O)(=O)c4ccc(NCC5CCOCC5)c([N+](=O)[O-])c4)c(Oc4cnc5[nH]ccc5c4)c3)CC2)=C(c2ccc(Cl)cc2)C1 [Venetoclax] (first compound max 1 µM, 7x7, partner max 1 µM) | -0.0914 | 0.911 | 1 | 0.135 | 0.201 | 0.171 | 0.187 | 0.837 | 0.323 | 1 | 0.908 | 0.974 | 0.506 | 0.997 | 0.244 | 0.129 | 1 | 0.2 | 0.561 | 1 |
| NC1(C(=O)N[C@@H](CCO)c2ccc(Cl)cc2)CCN(c2ncnc3[nH]ccc23)CC1 [Capivasertib] + CC(=O)c1c(C)c2cnc(Nc3ccc(N4CCNCC4)cn3)nc2n(C2CCCC2)c1=O [Palbociclib] (first compound max 10 µM, 7x7, partner max 10 µM) | 0.0029 | 0.284 | 0.94 | 0.187 | 0.717 | 0.376 | 0.356 | 0.423 | 0.583 | 0.472 | 0.344 | 0.549 | 0.48 | 0.257 | 0.688 | 0.25 | 1 | 0.588 | 0.368 | 0.757 |
| COc1cc2c(cc1OCCCCCOc1cc3c(cc1OC)C(=O)N1C=C(C)C[C@H]1C=N3)N=C[C@@H]1CC(C)=CN1C2=O [SG3199] + O=C(c1cc(Cc2n[nH]c(=O)c3ccccc23)ccc1F)N1CCN(C(=O)C2CC2)CC1 [Olaparib] (first compound max 0.001 µM, 7x7, partner max 10 µM) | -0.0661 | 0.0991 | 0.921 | 0.202 | 0.118 | 0.159 | 0.138 | 0.0954 | 0.079 | 0.175 | 0.114 | 0.103 | 0.355 | 0.204 | 0.878 | 0.027 | 0.958 | 0.104 | 0.133 | 0.101 |
| Cc1c2c(nn1C)CSCc1cc(n(C)n1)CSc1cc(c3ccccc3c1)OCCCc1c(C(=O)O)n(C)c3c-2c(Cl)ccc13 [AZD5991] + C[C@@H]1COCCN1C2=NC(=NC(=C2)C3(CC3)[S@](=N)(=O)C)C4=C5C=CNC5=NC=C4 [AZD6738] (first compound max 1 µM, 7x7, partner max 10 µM) | -0.0038 | 0.815 | 1 | 0.34 | 0.619 | 0.482 | 0.747 | 0.859 | 0.399 | 1 | 0.932 | 1 | 0.643 | 1 | 0.822 | 0.377 | 1 | 0.526 | 0.829 | 1 |
| C=CCn1c(=O)c2cnc(Nc3ccc(N4CCN(C)CC4)cc3)nc2n1-c1cccc(C(C)(C)O)n1 [AZD1775] + O=C(c1cc(Cc2n[nH]c(=O)c3ccccc23)ccc1F)N1CCN(C(=O)C2CC2)CC1 [Olaparib] (first compound max 1 µM, partner max 10 µM) | -0.0709 | 0.363 | 0.973 | 0.319 | 0.833 | 0.207 | 0.455 | 0.447 | 0.366 | 0.5 | 0.455 | 0.979 | 0.455 | 0.423 | 0.858 | 0.28 | 1 | 0.363 | 0.512 | 1 |
| COc1cccc(OCCCN)c1-c1cc(Nc2cnc(C#N)cn2)n[nH]1 [Prexasertib] + O=C(c1cc(Cc2n[nH]c(=O)c3ccccc23)ccc1F)N1CCN(C(=O)C2CC2)CC1 [Olaparib] (first compound max 1 µM, 7x7, partner max 10 µM) | -0.0984 | 0.412 | 0.98 | 0.722 | 0.825 | 0.43 | 0.555 | 0.253 | 0.424 | 0.383 | 0.795 | 0.973 | 0.398 | 0.614 | 0.923 | 0.469 | 1 | 0.593 | 0.797 | 1 |
| CN(CCO)CC[C@H](CSc1ccccc1)Nc1ccc(S(=O)(=O)NC(=O)c2ccc(N3CCC([C@@H](O)c4ccccc4-c4ccc(Cl)cc4)CC3)cc2)cc1S(=O)(=O)C(F)(F)F [AZD4320] + CCN(CCO)CCCOc1ccc2c(Nc3cc(CC(=O)Nc4cccc(F)c4)[nH]n3)ncnc2c1 [AZD2811] (first compound max 1 µM, 7x7, partner max 1 µM) | -0.0425 | 0.247 | 1 | 0.369 | 0.689 | 0.366 | 0.233 | 0.859 | 0.238 | 0.593 | 0.282 | 0.979 | 0.643 | 0.914 | 1 | 0.0781 | 0.755 | 0.238 | 0.0831 | 1 |
